The results in this text go back to patent publication US20250101041A1, “POSITIVE ALLOSTERIC MODULATORS OF THE MUSCARINIC ACETYLCHOLINE RECEPTOR M4” (Vanderbilt University, priority 2022, published 2025).

As a reminder, the Emax is the size of the effect at its maximum, as opposed to the concentration needed. For orientation: pEC50 means −log10 of the EC50, conventionally taken in molar units.

pEC50: −log10 of the molar value.

This test deals with T1, human mAChR M4 (Homo sapiens, UniProt P08173).
T1 construct: expressed in transfected cells; host or cells: CHO-K1 (American Type Culture Collection), stably expressing hM4 and Gqi5
T1 sequence (P08173 1-479): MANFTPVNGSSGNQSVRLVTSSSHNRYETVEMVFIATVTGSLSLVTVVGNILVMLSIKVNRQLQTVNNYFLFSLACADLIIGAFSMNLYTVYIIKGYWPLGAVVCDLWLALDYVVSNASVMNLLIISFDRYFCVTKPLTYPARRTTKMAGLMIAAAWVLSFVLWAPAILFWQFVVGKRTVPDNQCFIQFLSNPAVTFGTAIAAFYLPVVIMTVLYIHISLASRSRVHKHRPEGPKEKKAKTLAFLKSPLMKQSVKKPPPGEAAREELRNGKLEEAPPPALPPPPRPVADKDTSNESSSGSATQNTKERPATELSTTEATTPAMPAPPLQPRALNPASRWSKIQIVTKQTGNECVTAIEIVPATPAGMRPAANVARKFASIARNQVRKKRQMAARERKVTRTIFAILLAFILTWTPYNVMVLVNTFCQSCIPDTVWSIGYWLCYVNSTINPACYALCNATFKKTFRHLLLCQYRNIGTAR
Briefly: mAChR M4 cell-based functional assay: calcium mobilization (Fluo-4, FDSS), potentiation of EC20 acetylcholine response in hM4-Gqi5 CHO-K1 cells. The conditions noted are these: human M4; for Emax at 30 µM: CHO-K1, % ACh maximum at 30 μM; for pEC50: potentiation of EC20 acetylcholine response, calcium mobilization. A digest of the protocol:
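CHO-K1 cells stably co-expressing human M4 and chimeric Gqi5, loaded with Fluo-4 AM (50 min, 37 °C). Compounds in 11-point 1:3 series added first; EC20 acetylcholine added at 144 s and again at 230 s. Calcium read on FDSS at 1 Hz; EC50 and Emax from four-parameter logistic fit of potentiated EC20 response.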

Turning to `Cc1cc2nccc(=O)n2nc1N1CCc2ncc(N3CCCn4nccc43)cc2C1` [Compound 2-1, 7-(3-(6,7-dihydropyrazolo[1,5-a]pyrimidin-4(5H)-yl)-7,8-dihydro-1,6-naphthyridin-6(5H)-yl)-8-methyl-4H-pyrimido[1,2-b]pyridazin-4-one], the Emax at 30 µM is 97% and the pEC50 was 7.68.

With `Cc1ccc2c(c1)N(c1cnc3c(c1)CN(c1nn4c(=O)ccnc4cc1C)CC3)C(C)CO2` (centres unmarked) [Compound 2-54, 7-(3-(3,6-dimethyl-2,3-dihydro-4H-benzo[b][1,4]oxazin-4-yl)-7,8-dihydro-1,6-naphthyridin-6(5H)-yl)-8-methyl-4H-pyrimido[1,2-b]pyridazin-4-one], the Emax at 30 µM amounted to 96% and the pEC50 was 7.19.

`COc1cc(Nc2cnc3c(c2)CN(c2nn4c(=O)ccnc4cc2C)CC3)ccn1` [Compound 2-141, 7-(3-((2-methoxypyridin-4-yl)amino)-7,8-dihydro-1,6-naphthyridin-6(5H)-yl)-8-methyl-4H-pyrimido[1,2-b]pyridazin-4-one]: the Emax at 30 µM was determined as 100% and the pEC50 is 7.68.

Consider `Cc1cc(-c2cnc3c(c2)CN(c2nn4c(=O)ccnc4cc2C)CC3)n(C)n1` [Compound 1-390, 7-(3-(1,3-dimethyl-1H-pyrazol-5-yl)-7,8-dihydro-1,6-naphthyridin-6(5H)-yl)-8-methyl-4H-pyrimido[1,2-b]pyridazin-4-one], for which the Emax at 30 µM was found to be 98% and the pEC50 is 6.31.

As for `CC(=O)N1CC=C(c2cnc3c(c2)CN(c2nn4c(=O)ccnc4cc2C)CC3)CC1` [Compound 1-388, 7-(3-(1-acetyl-1,2,3,6-tetrahydropyridin-4-yl)-7,8-dihydro-1,6-naphthyridin-6(5H)-yl)-8-methyl-4H-pyrimido[1,2-b]pyridazin-4-one], the Emax at 30 µM is 61% and the pEC50 was 5.89.

Turning to `Cc1cc(=O)n2nc(N3CCc4ncc(-c5cccc(F)c5)cc4C3)c(C)cc2n1` [Compound 1-211, 7-(3-(3-fluorophenyl)-7,8-dihydro-1,6-naphthyridin-6(5H)-yl)-2,8-dimethyl-4H-pyrimido[1,2-b]pyridazin-4-one], the Emax at 30 µM was 76% and the pEC50 is 6.35.

Regarding `Cc1cc(=O)n2nc(N3CCc4ncc(-c5ccc(F)c(F)c5)cc4C3)c(C)cc2n1` [Compound 1-213, 7-(3-(3,4-difluorophenyl)-7,8-dihydro-1,6-naphthyridin-6(5H)-yl)-2,8-dimethyl-4H-pyrimido[1,2-b]pyridazin-4-one], the Emax at 30 µM is 82% and the pEC50 was 6.35.

For the compound `Cc1cc(F)c(F)c(-c2cnc3c(c2)CN(c2nn4c(=O)cc(C)nc4cc2C)CC3)c1` [Compound 1-252, 7-(3-(2,3-difluoro-5-methylphenyl)-7,8-dihydro-1,6-naphthyridin-6(5H)-yl)-2,8-dimethyl-4H-pyrimido[1,2-b]pyridazin-4-one], the Emax at 30 µM was determined as 70% and the negative-log EC50 (pEC50) was 6.20.

In the case of `Cc1cc2nccc(=O)n2nc1N1CCc2ncc(-c3ccccc3C(C)(F)F)cc2C1` [Compound 1-433, 7-(3-(2-(1,1-difluoroethyl)phenyl)-7,8-dihydro-1,6-naphthyridin-6(5H)-yl)-8-methyl-4H-pyrimido[1,2-b]pyridazin-4-one], the Emax at 30 µM was 41% and the pEC50 was 5.90.

In the case of `Cc1ccc(-c2cnc3c(c2)CN(c2nn4c(=O)cc(C(=O)NC5(C#N)CC5)nc4cc2C)CC3)cn1` [Compound 1-76, N-(1-cyanocyclopropyl)-8-methyl-7-(3-(6-methylpyridin-3-yl)-7,8-dihydro-1,6-naphthyridin-6(5H)-yl)-4-oxo-4H-pyrimido[1,2-b]pyridazine-2-carboxamide], the Emax at 30 µM amounted to 79% and the pEC50 was 6.83.
